Experimental findings from EPA's ToxValDB 9.5 (doi:10.2903/j.efsa.2014.3817) are described below.

The test system of one data set is Anas platyrhynchos. The following applies: acute; oral; unspecified; mortality.
Another data set relates to Apis mellifera. To be noted: acute, mortality.
Another data set has as its system Canidae. The following applies: chronic; duration: 1 years; oral; Dog Other; clinical chemistry.
For a further data set, the system named is Colinus virginianus. To be noted: reproduction developmental.
The subject of a further data set is Daphnia magna. To be noted: chronic/long-term; duration: 21 days; reproduction.
For the next data set, the system named is Folsomia candida. To be noted: chronic/long-term.
A further data set has as its system Oncorhynchus mykiss. The following applies: chronic/long-term; duration: 90 days; other.
A further data set concerns Oryctolagus sp. The following applies: reproduction developmental; histopathology: nonneoplastic.
In the next data set the test system is Zea sp. The following applies: not reported; seedling emergence.
A further data set has as its system Aphidius rhopalosiphi. Description: LR50; higher = less toxic. To be noted: not reported; mortality.
A further data set has as its system Typhlodromus pyri. Description: LR50; higher = less toxic. To be noted: not reported; mortality.

The NOAEL is the highest tested level that showed no adverse finding. On to `CC1=NNC(=O)N(/N=C/c2cccnc2)C1` [Pymetrozine], for which the LD50 in the data set with Anas platyrhynchos is ≥ 2000 mg/kg-day; in the data set with Apis mellifera (dermal), > 100 µg/piece; in the data set with Apis mellifera (oral, unspecified), > 62.7 µg/piece; in the data set on Rattus norvegicus (acute, mortality) it was 3590 mg/kg-day. Besides, the NOAEL in the data set with Canidae was 0.57 mg/kg-day; in the data set on Oryctolagus sp., 10 mg/kg-day; in the data set with Rattus norvegicus (reproduction developmental, reproduction) it was ≥ 110 mg/kg-day; with Rattus norvegicus (subchronic, duration: 90 days, oral, clinical chemistry), 33 mg/kg-day. This compound also displayed an NOEL with Colinus virginianus of 21.8 mg/kg-day. Also, the NOEC with Daphnia magna was 0.025 mg/L; with Folsomia candida it was 1000 mg/kg; in the data set on Oncorhynchus mykiss, 11.7 mg/L; in the data set with Tagia sp. (chronic/long-term, duration: 8 weeks), 0.00139 g/ha; in the data set with Zea sp., 150 g/ha. In addition, the LC50 with Tagia sp. (acute, duration: 14 days, mortality) was 1100 mg/kg. For the same compound, the LR50 with Aphidius rhopalosiphi is 75 g/ha; in the data set with Typhlodromus pyri, > 1200 g/ha.
